Reference: patent publication US11339144B2 (Navitor Pharmaceuticals, Inc., priority 2017, dated 2022)

What was measured:
[1] = molecular target: Rheb (Homo sapiens (Human), UniProt Q15382); test: Affinity Selection Mass Spectrometry (ASMS); type: binding; conditions: affinity (R3/R0) in Affinity Selection Mass Spectrometry assay
Procedure: Method 2 (Affinity Selection Mass Spectrometry
Protein: Rheb (19 KDa) in the following buffer: 20 mM Tris, pH 8.0, 200 mM NaCl, 2 mM DTT, 5 mM MgCl2 was prepared as under.
Human Rheb protein (I-169) was purified from BL21 (DE3) E. coli using a His-Smt-Rheb expression vector. The cell paste was lysed in lysis buffer (50 mM HEPES pH 7.5, 0.5 M NaCl, 5% Glycerol, 1% CHAPS, EDTA free protease inhibitor tablets, lysozyme to 1 mg/mL, benzonase 250U), sonicated, and purified on a HiTrap Ni Chelating Column (GE Healthcare) using the following buffer: 50 mM HEPES pH 7.5, 0.5 M NaCl, 5% Glycerol, and imidazole increasing in concentration from 5 mM to 500 mM. The His-Smt tag was cleaved using a U1p1 enzyme and dialyzed into 50 mM HEPES pH 7.5, 0.5 M NaCl, 5% Glycerol. The resultant protein was again purified on a Ni Chelating column to remove the U1p1 enzyme and His-Smt tag and then purified by size exclusion chromatography on a Sephacryl S-100 26/60 column into the following final buffer: 20 mM NaPhos pH 7.0, 100 mM NaCl, 5 mM MgCl2, 2 mM TCEP.
Concentrations: 60 μM Rheb, 180 μM GDP and 2 μM of each compound,
Ultrafiltration Filter (Sartorius, Germany) MW cutoff: 10 KDa
• (a) Sample preparation: Prepare sample for each group in 1.5 mL microcentrifuge tube according to the experimental design, total volume 550 μL. In a standard ASMS experiment there are two groups: Protein plus (P+L+) and protein minus (P−L+). • (b) Transfer 50 μL from the 550 μL to a vial as R0 sample. Incubate the rest solution for 30 min at room temperature. Then transfer the 500 μL into an ultrafiltration filter tube and centrifuge at 12×10^3 rpm for ˜10 min, leave about 50 μL solution (otherwise adjust this time). • (c) Add incubation buffer to the ultrafiltration filter tube to about 500 μL. Stir gently and centrifuge mixtures as above, leave about 50 μL solution. • (d) Repeat the step c. Transfer the remaining 50 μL upper layer solution to a new vial as R^3 sample. Sample Extraction: Add 150 μL MeCN to denature the protein completely. Centrifuge at 12×10^3 rpm for 5 min. Transfer the supernatant into LC-MS auto sampler vials for LC-MS analysis (5 uL injection).
Waters Acquity UPLC system, Waters ACQUITY UPLC BEH C18 column (2.1×50 mm, 1.7 μM); Mobile phase A: 0.1% formic acid solution, B: MeCN; 0.3 mL/min, 5 μL injection, gradient elution (Table 5).
Waters Synapt G1 Q-TOF system, positive or negative ion scan modes; Capillary voltage: 3.0 kV; Method: MSE; Mass range: m/z=100-1000; Source temperature: 120° C.; Desolvation temperature: 400° C.; Collision voltage: 35 V; Sampling Cone: 35 V; Extraction Cone: 4.0 V; Cone Gas: 50 L/h; Desolvation Gas: 800 L/h.

[2] = molecular target: HA-GST-Rheb (GTP-γ-S loaded) activating mTORC1 (Homo sapiens (Human), UniProt Q15382); test: Rheb-dependent in vitro kinase assay (Rheb-IVK; LanthaScreen or Western readout); type: biochemical; conditions: Rheb-dependent in vitro kinase assay; read-out: IVK IC50
Chain of HA-GST-Rheb (GTP-γ-S loaded) activating mTORC1 (Q15382 1-181): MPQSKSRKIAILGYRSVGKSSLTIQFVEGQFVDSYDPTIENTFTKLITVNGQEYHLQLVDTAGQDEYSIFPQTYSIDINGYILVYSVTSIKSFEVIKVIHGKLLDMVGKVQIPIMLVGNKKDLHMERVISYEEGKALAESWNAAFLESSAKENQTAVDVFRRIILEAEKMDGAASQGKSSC

Chain of Rheb (Q15382 1-169 limits assumed): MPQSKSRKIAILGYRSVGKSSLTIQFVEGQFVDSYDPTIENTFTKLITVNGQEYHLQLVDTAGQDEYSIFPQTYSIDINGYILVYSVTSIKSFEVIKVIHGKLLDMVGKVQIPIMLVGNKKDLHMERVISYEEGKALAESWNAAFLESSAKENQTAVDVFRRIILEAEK

Compound	ASMS (R3/R0) [1]	IC50 [2] [µM]
O=[N+]([O-])c1ccc(COc2cc3nc(CO)[nH]c3c(Cl)c2Cl)cc1 [I-329, (6,7-dichloro-5-(4-nitrobenzyloxy)-1H-benzo[d]imidazol-2-yl)methanol]	A (an affinity (R3/R0)>100%)	10 to 100
CS(=O)(=O)CCNC(=O)c1cc2c(Sc3ccc(Cl)cc3)cc(Cl)cc2[nH]1 [I-137]	A (an affinity (R3/R0)>100%)	> 100
CN(C)C(=O)c1ccc(Cn2c(-c3nn[nH]n3)cc3c(Br)cc(Sc4ccc(Cl)c(Cl)c4)cc32)cc1 [I-14]	B (an affinity (R3/R0) between 100% and 20%)	> 3
Cc1c(-c2ccc(Cn3c(C(=O)O)cc4c(Sc5ccc(Cl)cc5Cl)cc(Cl)cc43)cc2)cnn1C [I-77, 6-chloro-4-(2,4-dichlorophenylthio)-1-(4-(1,5-dimethyl-1H-pyrazol-4-yl)benzyl)-1H-indole-2-carboxylic acid]	B (an affinity (R3/R0) between 100% and 20%)	< 10
OCc1nc2cc(Cl)c(SCc3ccc(Cl)cc3Cl)cc2[nH]1 [I-361, (5-chloro-6-(2,4-dichlorobenzylthio)-1H-benzo[d]imidazol-2-yl)methanol]	B (an affinity (R3/R0) between 100% and 20%)	100 to 300
Cn1ccc2c(Nc3ccccc3)cccc21 [I-299]	C (an affinity (R3/R0)<20%)	> 100
CN1CCN(C(=O)c2cc3nc(-c4ccnc5[nH]ccc45)[nH]c3c(Cl)c2Cl)CC1 [I-321]	C (an affinity (R3/R0)<20%)	> 100
CC(C)(C)OC(=O)NCc1nc2cc(OCc3ccc(Cl)cc3)c(Cl)c(Cl)c2[nH]1 [I-350]	B (an affinity (R3/R0) between 100% and 20%)	> 100
Clc1cccc(Sc2cccc3[nH]ccc23)c1 [I-243, 4-(3-chlorophenylthio)-1H-indole]	B (an affinity (R3/R0) between 100% and 20%)	10 to 100
OCc1cc2c(Br)cc(Sc3ccccc3)cc2[nH]1 [I-237, (4-bromo-6-(phenylthio)-1H-indol-2-yl)methanol]	B (an affinity (R3/R0) between 100% and 20%)	10 to 100
NC(=O)CCc1cc2c(Oc3ccccc3)c(Cl)ccc2[nH]1 [I-247, 3-(5-chloro-4-phenoxy-1H-indol-2-yl)propanamide]	C (an affinity (R3/R0)<20%)	10 to 100
OCc1cc2c(Sc3ccc(OC(F)(F)F)cc3)cc(Cl)cc2[nH]1 [I-123, (6-chloro-4-(4-(trifluoromethoxy)phenylthio)-1H-indol-2-yl)methanol]	B (an affinity (R3/R0) between 100% and 20%)	< 10
7-chloro-6-(3,4-dichlorophenylthio)-4-fluoro-1H-indole-2-carboxylic acid [I-66]	B (an affinity (R3/R0) between 100% and 20%)	< 10
O=C(O)c1cc2c(SCc3ccc(Cl)cc3)cc(SCc3ccc(Cl)cc3)cc2[nH]1 [I-94, 4,6-bis(4-chlorobenzylthio)-1H-indole-2-carboxylic acid]	B (an affinity (R3/R0) between 100% and 20%)	< 10
CN1CC(NC(=O)c2cc3c(Sc4ccc(Cl)cc4Cl)cc(Cl)c(Cl)c3[nH]2)C1 [I-21]	C (an affinity (R3/R0)<20%)	> 100
O[C@@H]1CCC[C@H](COc2c(Cl)c(Cl)cc3[nH]c(-c4ccncc4)nc23)C1 [I-324, (1R,3S)-3-((5,6-dichloro-2-(pyridin-4-yl)-1H-benzo[d]imidazol-4-yloxy)methyl)cyclohexanol]	B (an affinity (R3/R0) between 100% and 20%)	> 3
CC(=O)c1cc2c(Oc3ccccc3)cc(Cl)cc2[nH]1 [I-150]	C (an affinity (R3/R0)<20%)	> 100
OCc1nc2cc(OCc3ccccc3)c(Cl)cc2n1Cc1nc[nH]n1 [I-403, (1-((1H-1,2,4-triazol-3-yl)methyl)-5-(benzyloxy)-6-chloro-1H-benzo[d]imidazol-2-yl)methanol]	–	100 to 300
Cn1c(CO)cc2c(Oc3ccc(F)cc3)cccc21 [I-273]	–	> 100
O=S(=O)(c1ccccc1)c1cc(Br)c2cc(CO)[nH]c2c1 [I-230]	–	> 100
Clc1cccc(Cl)c1Oc1cccc2[nH]ccc12 [I-228]	–	> 100
COC(=O)c1ccc(Sc2cccc3[nH]ccc23)cc1 [I-188]	–	> 100
Cn1ccc2c(NC3CCNCC3)cccc21 [I-297, 1-methyl-N-(piperidin-4-yl)-1H-indol-4-amine]	–	300 to 800
Nc1ccnc(COc2c(Cl)c(Cl)cc3[nH]c(CO)nc23)n1 [I-420]	–	> 100
CCn1cnc2cc(OCc3ccccc3)c(Cl)cc21 [I-434, 5-(benzyloxy)-6-chloro-1-ethyl-1H-benzo[d]imidazole]	–	100 to 300
NC(=O)Cn1c(CO)nc2cc(Cl)c(OCc3ccccc3)cc21 [I-476]	–	> 100
N#CCc1nc2c(OCc3ccccc3)c(Cl)ccc2[nH]1 [I-469]	–	> 100
Cn1c(CO)cc2c(Oc3ccc(Cl)cc3)cccc21 [I-259]	–	> 100

Compound	ASMS (R3/R0) [1]	IC50 [2] [µM]
CCn1cnc2cc(Cl)c(OCc3ccccc3)cc21 [I-435]	–	> 100
Cn1c(CO)cc2c(Oc3ccccc3)cc(Cl)cc21 [I-281]	–	> 100
Clc1cccc(Oc2cccc3[nH]ccc23)c1 [I-284, 4-(3-chlorophenoxy)-1H-indole]	–	10 to 100
CCn1c(CO)nc2cc(OCc3ccccc3)ccc21 [I-416]	–	> 100
OCc1nc2c(OCC3CCCN3)c(Cl)c(Cl)cc2[nH]1 (stereo not drawn) [I-468]	–	> 100
Clc1ccc2[nH]c(-c3ncco3)nc2c1Oc1ccccc1 [I-427, 2-(5-chloro-4-phenoxy-1H-benzo[d]imidazol-2-yl)oxazole]	–	100 to 300
CCn1c(CO)nc2cc(OCc3ccc(Cl)cc3)c(Cl)cc21 [I-449]	–	> 100
OCc1cc2c(Br)cc(OCc3ccccc3)cc2n1Cc1ccccc1 [I-224]	–	> 100
OCc1nc2cc(Cl)c(Cl)c(OCC3CCCCN3)c2[nH]1 (stereo not drawn) [I-462]	–	> 100
Clc1cc2cc[nH]c2cc1Oc1ccccc1 [I-258]	–	> 100
Nc1nonc1-c1nc2cc(Cl)c(Cl)cc2[nH]1 [I-477]	–	> 100
N#Cc1ccccc1COc1c(Cl)c(Cl)cc2[nH]c(CO)nc12 [I-472]	–	> 100
Clc1ccc(Sc2cccc3cc[nH]c23)cc1 [I-217]	–	> 100
COc1ccc(Sc2cc(Cl)cc3[nH]c(C(=O)O)cc23)cc1OC [I-138, 6-chloro-4-(3,4-dimethoxyphenylthio)-1H-indole-2-carboxylic acid]	–	100 to 300
Cn1ccc2c(Oc3cccc(F)c3)cccc21 [I-266]	–	> 100
OCc1nc2c(OC[C@H]3CCCC[C@@H]3O)c(Cl)c(Cl)cc2n1Cc1nn[nH]n1 (racemic) [I-391, (+,−)-trans-2-((1-((2H-tetrazol-5-yl)methyl)-5,6-dichloro-2-(hydroxymethyl)-1H-benzo[d]imidazol-4-yloxy)methyl)cyclohexanol]	–	10 to 100
Cn1c(CO)nc2cc(Cl)c(OCc3ccccc3)cc21 [I-426]	–	> 100
O=C(c1ccc(Cl)cc1)c1cccc2[nH]ccc12 [I-178]	–	> 100
OCc1nc2c(Oc3ccccc3)cccc2[nH]1 [I-470]	–	> 100
OCc1cc2c(Cl)cc(Oc3ccccc3)cc2n1Cc1c[nH]cn1 [I-174]	–	> 100
N#CCc1nc2c(Oc3ccccc3)c(Cl)ccc2[nH]1 [I-441]	–	> 100
c1ccc(Sc2cccc3[nH]ccc23)nc1 [I-210]	–	> 100
OCc1nc2cc(OCc3ccccc3)c(Cl)cc2n1CC(F)(F)F [I-457]	–	> 100
OCc1cc2ccc(Oc3ccccc3)cc2[nH]1 [I-286, (6-Phenoxy-1H-indol-2-yl)methanol]	–	300 to 800
OCc1cc2c(Oc3cccc(F)c3)cccc2[nH]1 [I-264]	–	> 100
OCc1nc2cc(Cl)c(Cl)c(OCC3CCNC3)c2[nH]1 (stereo not drawn) [I-460]	–	> 100
Cc1cc(Oc2ccccc2)cc2[nH]c(CO)cc12 [I-238]	–	> 100
